What was measured:
MMP-7 (Matrilysin) = biological target: T1, MMP-7 (Matrilysin) (Homo sapiens, UniProt P09237); experiment: Ki determination with fluorogenic synthetic substrates, recombinant MMP-7; assay type: biochemical; conditions: @ 20 mM inhibitor; listed as R I
T1 construct: made in house; host or cells: E. coli
T1 sequence (P09237 95-267): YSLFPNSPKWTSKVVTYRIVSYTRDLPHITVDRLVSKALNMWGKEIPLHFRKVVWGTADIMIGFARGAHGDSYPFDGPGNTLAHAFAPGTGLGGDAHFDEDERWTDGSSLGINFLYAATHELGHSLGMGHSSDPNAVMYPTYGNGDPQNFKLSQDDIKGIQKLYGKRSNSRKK
Experimental: (§1) The MMPs used were produced in recombinant form, in an E. coli expression system, and then purified using different types of chromatographies. Apart from stromelysin-3 (MMP-11), the MMPs produces correspond to human sequences. The Stromelysin-3 used in this study corresponds to the murine form.
(§2) The activity of each MMP was determined using two fluorogenic synthetic substrates. The cutoff of said substrates, which generates a fluorescent signal proportional to the quantity of split substrate, enables a precise determination of the kinetic parameters. The affinity constants Ki were calculated using the equation of Horowitz et al, Proc. Natl. Acad. Sci. USA, 1987, 84, p. 6654-6658 [14], accounting for the dependency of the percentage of inhibition measured experimentally according to the concentration of inhibitor, as a function of the enzyme and substrate concentration.
(§3) The experiments for conducted in a Tris/50 mM HCl buffer, pH 6.8, 10 mM CaCl2, 25° C.

MMP-1 (HFC) = biological target: T2, MMP-1 (HFC) (Homo sapiens, UniProt P03956); experiment: Ki determination with fluorogenic synthetic substrates, recombinant MMP-1; assay type: biochemical; conditions: @ 2 mM inhibitor; listed as R I
T2 construct: made in house; host or cells: E. coli
T2 sequence (P03956 100-469): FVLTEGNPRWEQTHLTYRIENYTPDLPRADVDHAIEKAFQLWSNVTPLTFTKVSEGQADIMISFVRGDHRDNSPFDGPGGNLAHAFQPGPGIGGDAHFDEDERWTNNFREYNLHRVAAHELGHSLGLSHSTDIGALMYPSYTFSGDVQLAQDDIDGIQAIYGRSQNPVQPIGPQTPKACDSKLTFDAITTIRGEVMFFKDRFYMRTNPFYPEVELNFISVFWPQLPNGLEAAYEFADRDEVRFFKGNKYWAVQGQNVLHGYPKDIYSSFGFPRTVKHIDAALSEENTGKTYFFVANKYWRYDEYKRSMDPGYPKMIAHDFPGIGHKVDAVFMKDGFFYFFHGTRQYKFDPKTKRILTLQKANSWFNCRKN
Experimental: as §1, §2, §3

MMP-8 (HNC) = biological target: T3, MMP-8 (HNC) (Homo sapiens, UniProt P22894); experiment: Ki determination with fluorogenic synthetic substrates, recombinant MMP-8; assay type: biochemical; conditions: Tris/50 mM HCl buffer, pH 6.8, 10 mM CaCl2, 25° C.; read-out: affinity constant Ki, MMP-8 HNC
T3 construct: made in house; host or cells: E. coli
Experimental: as §1, §2, §3

[1] = biological target: T4, MMP-11 (stromelysin-3, mST3) (Mus musculus, UniProt Q02853); experiment: Ki determination with fluorogenic synthetic substrates, recombinant MMP-11; assay type: biochemical, murine; conditions: Tris/50 mM HCl buffer, pH 6.8, 10 mM CaCl2, 25° C.; read-out: affinity constant Ki, MMP-11 mST3
T4 construct: made in house; host or cells: E. coli
T4 sequence (Q02853 102-492): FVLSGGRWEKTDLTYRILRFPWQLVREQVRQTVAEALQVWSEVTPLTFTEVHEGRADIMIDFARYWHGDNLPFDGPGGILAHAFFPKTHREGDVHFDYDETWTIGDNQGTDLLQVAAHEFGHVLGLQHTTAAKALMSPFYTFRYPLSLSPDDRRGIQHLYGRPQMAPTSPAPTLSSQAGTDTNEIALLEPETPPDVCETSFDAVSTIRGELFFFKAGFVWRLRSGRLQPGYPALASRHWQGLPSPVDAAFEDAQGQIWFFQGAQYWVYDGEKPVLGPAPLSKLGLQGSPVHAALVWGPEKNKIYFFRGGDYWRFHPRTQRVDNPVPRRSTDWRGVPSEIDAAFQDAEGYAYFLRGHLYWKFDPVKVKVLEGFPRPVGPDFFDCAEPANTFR
Experimental: as §1, §2, §3

[2] = tested on: malignant murine C26 cells; experiment: Tumorigenesis model: subcutaneous graft of malignant murine C26 cells in syngenic mice; assay type: in vivo; conditions: 150 μg of inhibitor/mouse/day, intraperitoneal
Experimental: The tumorigenesis model used to test the effect of said RXPO3 inhibitor in vivo consists of a subcutaneous graft of malignant murine C26 cells in syngenic mice (with a genetic background similar to that of the injected cells).
The C26 cells established from Balb c mouse colic cancer (Corbett et al., 1975, Cancer Res, 35:2434-2439 [15] are cultured until subconfluence. After trypsinisation, the cells are centrifuged at 1000 g for 10 minutes. The sediment is washed and resuspended in 1×PBS. A […] volume, containing 5×10^4 C26 cells, is injected subcutaneously at 2 sites on the back of 8 to 9-week old mice. The inhibitor is solubilised in 1× PBS and […] of inhibitor in a […] volume is administered by the intraperitoneal route. The treatment starts on the day of the injection of the C26 cells and continues at a rate of one injection a day for 25 days. The tumoral volumes are measured every day.
Three identical and independent tumorigenesis experiments were conducted, according to the protocol given above. The results obtained were similar. One of them is reported below.
The experiment related to 12 animals, 6 receiving a treatment (150 μg of inhibitor/mouse/day) and 6 used as controlled animals (150 μl 1×PBS).

MMP-2 (Gel-A) = biological target: T5, MMP-2 (Gel-A) (Homo sapiens, UniProt P08253); experiment: Ki determination with fluorogenic synthetic substrates, recombinant MMP-2; assay type: biochemical; conditions: Tris/50 mM HCl buffer, pH 6.8, 10 mM CaCl2, 25° C.; read-out: affinity constant Ki, MMP-2 Gel-A
T5 construct: made in house; host or cells: E. coli
T5 sequence (P08253 110-660): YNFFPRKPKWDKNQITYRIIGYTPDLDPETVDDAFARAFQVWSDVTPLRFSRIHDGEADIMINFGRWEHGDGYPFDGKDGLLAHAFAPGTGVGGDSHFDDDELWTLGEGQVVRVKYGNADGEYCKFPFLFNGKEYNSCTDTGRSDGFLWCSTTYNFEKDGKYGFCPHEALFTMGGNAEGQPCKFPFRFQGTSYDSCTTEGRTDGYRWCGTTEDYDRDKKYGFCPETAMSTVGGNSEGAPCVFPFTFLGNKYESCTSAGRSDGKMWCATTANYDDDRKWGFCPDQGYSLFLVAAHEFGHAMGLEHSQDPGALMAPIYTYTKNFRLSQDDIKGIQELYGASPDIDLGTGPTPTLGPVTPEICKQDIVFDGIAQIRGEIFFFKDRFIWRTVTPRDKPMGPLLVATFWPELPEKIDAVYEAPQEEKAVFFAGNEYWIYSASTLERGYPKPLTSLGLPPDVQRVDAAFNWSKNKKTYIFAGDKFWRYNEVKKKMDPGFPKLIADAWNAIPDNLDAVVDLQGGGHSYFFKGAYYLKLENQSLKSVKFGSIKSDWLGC
Experimental: as §1, §2, §3

MMP-14 (MT1-MMP) = biological target: T6, MMP-14 (MT1-MMP) (Homo sapiens, UniProt P50281); experiment: Ki determination with fluorogenic synthetic substrates, recombinant MMP-14; assay type: biochemical; conditions: Tris/50 mM HCl buffer, pH 6.8, 10 mM CaCl2, 25° C.; read-out: affinity constant Ki, MMP-14 MT1-MMP
T6 construct: made in house; host or cells: E. coli
Experimental: as §1, §2, §3

MMP-9 (Gel-B) = biological target: T7, MMP-9 (Gel-B) (Homo sapiens, UniProt P14780); experiment: Ki determination with fluorogenic synthetic substrates, recombinant MMP-9; assay type: biochemical; conditions: Tris/50 mM HCl buffer, pH 6.8, 10 mM CaCl2, 25° C.; read-out: affinity constant Ki, MMP-9 Gel-B
T7 construct: made in house; host or cells: E. coli
Experimental: as §1, §2, §3

T7 sequence (P14780 94-707): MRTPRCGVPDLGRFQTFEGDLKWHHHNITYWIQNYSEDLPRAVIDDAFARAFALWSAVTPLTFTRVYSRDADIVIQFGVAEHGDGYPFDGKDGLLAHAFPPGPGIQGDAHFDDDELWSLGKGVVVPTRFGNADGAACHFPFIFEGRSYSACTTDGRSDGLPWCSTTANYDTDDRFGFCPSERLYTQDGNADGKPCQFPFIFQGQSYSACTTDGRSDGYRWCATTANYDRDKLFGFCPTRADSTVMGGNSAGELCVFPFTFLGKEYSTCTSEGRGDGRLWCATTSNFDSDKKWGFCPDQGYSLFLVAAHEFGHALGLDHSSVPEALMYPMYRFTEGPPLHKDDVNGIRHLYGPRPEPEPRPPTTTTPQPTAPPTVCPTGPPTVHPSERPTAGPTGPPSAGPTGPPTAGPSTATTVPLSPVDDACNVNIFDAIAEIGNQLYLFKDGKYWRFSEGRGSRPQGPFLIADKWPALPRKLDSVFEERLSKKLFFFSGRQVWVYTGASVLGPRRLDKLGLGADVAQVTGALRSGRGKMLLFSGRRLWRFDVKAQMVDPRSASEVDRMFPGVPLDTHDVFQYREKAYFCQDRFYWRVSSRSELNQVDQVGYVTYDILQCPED
T3 sequence (P22894 101-467): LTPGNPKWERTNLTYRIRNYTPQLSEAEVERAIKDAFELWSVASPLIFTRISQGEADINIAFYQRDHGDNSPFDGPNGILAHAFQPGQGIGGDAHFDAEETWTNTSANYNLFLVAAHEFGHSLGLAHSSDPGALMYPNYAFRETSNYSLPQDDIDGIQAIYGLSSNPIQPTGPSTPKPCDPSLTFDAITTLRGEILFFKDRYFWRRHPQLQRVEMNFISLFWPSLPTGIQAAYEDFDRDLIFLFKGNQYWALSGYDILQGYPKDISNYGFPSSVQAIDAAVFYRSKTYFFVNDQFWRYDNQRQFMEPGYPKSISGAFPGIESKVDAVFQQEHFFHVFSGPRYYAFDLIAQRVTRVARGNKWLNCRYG

percentage of inhibition, MMP-7 (MMP-7 (Matrilysin)): 44% @ 20 mM | percentage of inhibition, MMP-1 (MMP-1 (HFC)): 18% @ 2 mM | Ki (MMP-8 (HNC)): 16 nM | Ki [1]: 6 nM | Ki (MMP-2 (Gel-A)): 54 nM | Ki (MMP-14 (MT1-MMP)): 90 nM | Ki (MMP-9 (Gel-B)): 42 nM
SMILES: NC(=O)C(Cc1c[nH]c2ccccc12)NC(=O)C(CCCc1ccccc1)CP(=O)(O)C(Cc1ccccc1)NC(=O)OCc1ccccc1 (single isomer, unassigned) [Compound 15 R I, ZPheΨ(PO2CpH2)pPheTrpNH2]
mean and median tumour volumes in treated versus control animals ([2]; Days 10 to 25): always lower | difference in tumour size, treated versus control animals ([2]; day D15 to day D20, one injection a day for 25 days): ~50%

From patent publication US6630501B1, “Phosphinic pseudo-peptides that may be used as matrix zinc metalloprotease inhibitors” (Commissariat a l'energie Atomique, priority 1999, dated 2003)
